Here are results for six compounds from patent US20220340597A1, “HEXAHYDRO-1H-PYRAZINO[1,2-A]PYRAZINE COMPOUNDS FOR THE TREATMENT OF AUTOIMMUNE DISEASE” (Hoffmann-La Roche Inc., priority 2019, published 2022).

The term IC50 denotes the concentration that inhibits the measured activity by half. A high value points to weaker potency.

Data set [1] deals with Balb/c 3T3 mouse fibroblasts. The data set can be described thus: 3T3 in vitro phototoxicity assay (Neutral Red uptake). In kind it is cell-based. To be noted: for Phototoxicity factor: Factor=IC50(-UV)/IC50(+UV), cut-off >5; for IC50: Mus musculus, BALB/c3T3, light or radiation study, with approx. 5 J/cm2 UVA light, Neutral Red uptake. The text has this: 3T3 In Vitro Phototoxicity Assay
Phototoxicity is defined as a toxic response that is elicited after the first exposure of the skin to certain chemicals and subsequent exposure to light, or that is induced similarly by skin irradiation after systemic administration of a chemical substance. The assay used in this study is designed to detect the phototoxic potential of a chemical by using a simple in vitro cytotoxicity assay with Balb/c 3T3 mouse fibroblasts. The principle of this test is a comparison of the cytotoxicity of a chemical when tested with and without exposure to a non-toxic dose of UVA-light. Cytotoxicity is expressed as a dose dependent reduction of the growth rate of cells as determined by uptake of the vital dye Neutral Red one day after treatment.
A small amount of substance was weighed and formulated freshly in DMSO just before the start of the exposure of the cells. This stock solution or appropriate dilutions with DMSO were added to the cell suspensions to obtain the required final concentrations. All solutions were generally prepared in Eppendorf caps and discarded after use.
Chlorpromazine (HCL) (Sigma, Batch/Lot No.: 120M1328V), test concentration: 300 μg/mL, Solvent: PBS/3% DMSO
For this study the Neutral Red uptake (NRU) assay of Borenfreund and Puemer (Borenfreund, E, Puemer J A. Toxicity determined in vitro by morphological alterations and Neutral Red absorption. Toxicology Lett. 1985; 24:119-124) modified according to INVITTOX protocol No 78 (ERGATT/FRAME data bank of in vitro techniques in toxicology. INVITTOX PROTOCOL No 78. 3T3 NRU Phototoxicity Assay. March 1994) has been adapted to examine a possible phototoxic potential of the test item. This assay is based on the active uptake of the Neutral Red dye into the lysosomes of cultured murine fibroblasts. Because lysosomal membranes are known to be a site of action of many phototoxic compounds, this assay can provide a measure of potential for phototoxic injury.
A murine fibroblasts clone A 31 (ATCC no. CCL 163—passage No. 108) were cultured in 175 cm^2 tissue culture grade flasks, containing sDMEM (Dulbecco's […] Essential Medium, supplemented with 10% fetal calf serum, 2 mM L-glutamine, 100 units/ml Penicillin and 100 μg/ml streptomycin) at 37° C. in a humidified atmosphere of 6% CO2. Before cells approach confluence they were removed from flasks by trypsinisation. Prior to use in an assay, the cells were transferred to 96-well microtiter plates at a concentration of 1×10^4 cells/well in 100 μl volumes of sDMEM and allowed to attach for 24 h.
For incubation with murine fibroblasts, the test item was diluted in PBS/3% DMSO (detailed concentrations see in results).
Culture medium (Dulbecco's Modified Eagle Medium (DMEM), GlutaMAX (Gibco Ref 21885-025), 10% Fetal Bovine Serum (FBS) (Gibco Ref 10270-106), 100 IU/ml Penicillin and 100 μg/ml Streptomycin (Gibco Ref 15140-122)) was removed from the wells and murine fibroblasts were washed with PBS. Afterwards 100 μL of PBS/3% DMSO containing the test item was added and target cells were incubated for 1 h at 37° C. with 6% CO2.
For each test item the microtiter plates were prepared according to Table 4. “UVA plates” were exposed to approx. 5 J/cm^2 UVA light, the “Dark plates” were kept in the dark and served as cytotoxicity control. Plates with chlorpromazine hydrochloride served as positive control. UV flux was measured with a UV-meter (Dr. Gröbel RM21).
Following UV irradiation, the test item was removed from the wells (one washing step with PBS) and replaced with sDMEM. Target cells were then incubated overnight at 37° C. in 6% CO2.
Each plate contained wells with cells and solvent but without test item which were either not incubated with Neutral Red solution (0% standard—S1) or were stained with Neutral Red (100% standard—S2) for calculation of the standard cell viability curve. Wells labeled with U01-U08 contained the different test item concentrations. […]

Data set [2] concerns TLR7 agonist-induced lupus-like disease. The data set can be described thus: R848 agonist induced mouse lupus nephritis disease model. In kind it is in vivo, BALB/c mice. The settings on record: 10 mg/kg orally once daily. The text has this: Agonist Induced Mouse Lupus Nephritis Disease Model To assess compound efficacy in vivo against lupus nephritis, we utilized a murine model of TLR7 agonist-induced lupus-like disease, in which TLR7 activation leads to the development of systemic autoimmune symptoms with elevated levels of autoantibodies to double-stranded DNA (anti-dsDNA), inflammatory cytokines such as IP10, as well as multiple organs involvement especially in kidney and spleen. BALB/c mice were purchased from Vital River Laboratories Co., Ltd., Beijing, China. All mice were 7 to 8-week old female. To induce disease, animals were topically treated on the right ear with 100 μg of Resiquimod (R848) solved in 20 μL of acetone for three times per week. Compound or vehicle treatment was administrated orally once daily and 30 minutes prior to the epicutanenous R848 treatment if they were on the same day. Blood samples were collected once weekly to gauge the level of autoantibody against double stranded DNA and multiple cytokines in serum. The total anti-dsDNA Immunoglobulins in serum were measured according to the manufacturer's instruction with a commercially available ELISA assay (Cat #5110, Alpha Diagnostic Inti Inc.). Cytokine levels in serum were measured with a ProcartaPlex immunoassay Kit (Cat #[…], Thermo Fisher). Specifically, 10 μL of premixed magnetic capture beads were added to a DropArray DA-bead plate (Cat #969-CC-BD-05, Curiox). After washing, 10 μL of diluted sera (1:5) was incubated on the DA-bead plate overnight at 4° c. After washing for three times, 5 μL of premixed detection antibody was added to the plate with an incubation for 60 minutes at room temperature. After washing, 10 μL of Streptavidin-PE was added with an incubation for 30 minutes at room temperature. The beads were then re-suspended in 55 μL Reading Buffer. Samples were analyzed with a Luminex 200 (Millipore). Urine samples were collected once weekly with the animals housed in metabolic cages for 24 hours, and were subjected to the measurements of urinary albumin (UALB), urinary creatinine (UCR) and urinary total protein (UTP) with a Roche Cobas 6000 Chemistry Analyzer (Roche Diagnostics, Mannheim, Germany). Tubular protein scores of 0 to 3 were based on the percentage of tubules containing proteinaceous fluid. Grade 1: <25% of tubules affected; Grade 2: 25 to 50% of tubules affected; Grade 3: >50% of tubules affected. Spleens were harvested and weighed upon study termination to evaluate splenomegaly.

Converted amounts (≈) assume the structure as drawn.

For the compound `CO[C@@H]1CN(c2ccc(CCN3CCN4[C@@H](C3)CN(c3ccc(C#N)n5nccc35)C[C@H]4C)cc2)C[C@H]1N` [Example 68, 4-[(4R,9aS)-8-[2-[4-[(3R,4R)-3-amino-4-methoxy-pyrrolidin-1-yl]phenyl]ethyl]-4-methyl-3,4,6,7,9,9a-hexahydro-1H-pyrazino[1,2-a]pyrazin-2-yl]pyrazolo[1,5-a]pyridine-7-carbonitrile], in data set [1], the Phototoxicity factor was found to be 1.53 and the concentration for half-maximal inhibition (IC50) was 65.9 mg/L (≈ 128 µM).

Consider `CO[C@@H]1CN(c2ccc(CCN3CCN4[C@@H](C3)CN(c3ccc(C#N)c5ncccc35)C[C@H]4C)cn2)C[C@H]1N` [Example 12, 5-[(4R,9aS)-8-[2-[6-[(3R,4R)-3-amino-4-methoxy-pyrrolidin-1-yl]-3-pyridyl]ethyl]-4-methyl-3,4,6,7,9,9a-hexahydro-1H-pyrazino[1,2-a]pyrazin-2-yl]quinoline-8-carbonitrile], for which the Phototoxicity factor in data set [1] was >2.53.

For `[2H]c1ccc2c(N3C[C@@H]4CN(CCc5ccc(N6C[C@H]7NCCO[C@@H]7C6)nc5)CCN4[C@H](C)C3)ccc(C#N)c2n1` [Example 77, 5-[(4R,9aS)-8-[2-[6-[(4aR,7aR)-3,4,4a,5,7,7a-hexahydro-2H-pyrrolo[3,4-b][1,4]oxazin-6-yl]-3-pyridyl]ethyl]-4-methyl-3,4,6,7,9,9a-hexahydro-1H-pyrazino[1,2-a]pyrazin-2-yl]-2-deuterio-quinoline-8-carbonitrile], in data set [1], the Phototoxicity factor was >1.9 and the IC50 was 52.5 mg/L (≈ 97.3 µM).

`C[C@@H]1CN(c2ccc(C#N)c3ncccc23)C[C@@H]2CN(c3cccc4c3CNC4)CCN21` [Example 9, 5-[(4R,9aS)-8-isoindolin-4-yl-4-methyl-3,4,6,7,9,9a-hexahydro-1H-pyrazino[1,2-a]pyrazin-2-yl]quinoline-8-carbonitrile]: in data set [1], the Phototoxicity factor was >3.9 and half-maximal inhibition (IC50) was put at 26.3 mg/L (≈ 61.9 µM).

Consider `[2H]c1ccc2c(N3C[C@@H]4CN(c5ccc([C@@H]6CNCCO6)cc5)CCN4[C@@H](C)C3)ccc(C#N)c2n1` [Example 106, 5-[(4S,9aS)-4-methyl-8-[4-[(2R)-morpholin-2-yl]phenyl]-3,4,6,7,9,9a-hexahydro-1H-pyrazino[1,2-a]pyrazin-2-yl]-2-deuterio-quinoline-8-carbonitrile], for which, in data set [1], the Phototoxicity factor is given as >1.67 and the 50% inhibitory concentration (IC50) amounted to 60.2 mg/L (≈ 128 µM). In data set [2] (after 1 week of treatment (FIG. 3A)), the “production of Interferon gamma-induced protein 10 (IP-10) in serum” value was “inhibited”. In data set [2] (after 2 weeks of treatment (FIG. 3B)), the “level of anti-dsDNA autoantibodies in serum” value is reported as “significantly reduces”. The “kidney damage / R848-induced proteinuria (UACR)” value in data set [2] (after 5 weeks of treatment (FIG. 3C)) is on record as “no R848-induced proteinuria increase”. Moreover, in data set [2] (after 6 weeks of treatment (FIG. 3D)), the “splenomegaly / spleen weight” value is recorded as “prevented splenomegaly”.

As to `C[C@@H]1CN(c2ccc(C#N)c3ncccc23)C[C@@H]2CN(Cc3ccc4c(c3)CNCC4)CCN21` [Example 5, 5-[(4R,9aS)-4-methyl-8-(1,2,3,4-tetrahydroisoquinolin-7-ylmethyl)-3,4,6,7,9,9a-hexahydro-1H-pyrazino[1,2-a]pyrazin-2-yl]quinoline-8-carbonitrile], in data set [1], the Phototoxicity factor is >1.39 and inhibition was half-maximal at 23.3 mg/L (≈ 51.5 µM) (IC50).
